Data reported in PubChem BioAssay (NCI).
“And” between values parts separate entries of the source, which are not always exact repeats. Equal values may be shown once.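 96-well plates; 48 h exposure; 5 concentrations. Endpoints by linear interpolation between flanking doses. Not reached: highest tested concentration assigned. Here, GI50 denotes the concentration required for 50% inhibition of growth. Definition used: TGI = concentration required for complete inhibition of growth.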

Key:
Experiment in all cases: growth of human tumour cells (NCI), 48 h
K-562 leukemia = test system: K-562 leukemia
NCI-H226 lung = test system: NCI-H226 lung
SW-620 colon = test system: SW-620 colon
A549 NSCLC = test system: A549 NSCLC
IGROV1 ovarian = test system: IGROV1 ovarian
NCI-H460 lung = test system: NCI-H460 lung
OVCAR-5 ovarian = test system: OVCAR-5 ovarian
786-0 renal = test system: 786-0 renal
RPMI-8226 leukemia = test system: RPMI-8226 leukemia
UACC-62 melanoma = test system: UACC-62 melanoma
HL-60(TB) leukemia = test system: HL-60(TB) leukemia
RXF 393 renal = test system: RXF 393 renal

| SMILES | TGI (K-562 leukemia) | TGI (NCI-H226 lung) | TGI (SW-620 colon) | TGI (A549 NSCLC) | TGI (IGROV1 ovarian) | TGI (NCI-H460 lung) | TGI (OVCAR-5 ovarian) | TGI (786-0 renal) | TGI (RPMI-8226 leukemia) | TGI (UACC-62 melanoma) | TGI (HL-60(TB) leukemia) | TGI (RXF 393 renal) | GI50 (NCI-H226 lung) | GI50 (SW-620 colon) [µM] | GI50 (IGROV1 ovarian) [µM] | GI50 (OVCAR-5 ovarian) [µM] | GI50 (UACC-62 melanoma) [µM] | GI50 (HL-60(TB) leukemia) | GI50 (RXF 393 renal) [µM] |
| --- | --- | --- | --- | --- | --- | --- | --- | --- | --- | --- | --- | --- | --- | --- | --- | --- | --- | --- | --- |
| NC(=O)c1csc(CCCCCCc2nc(C(N)=O)cs2)n1 | > 62.8 µM | > 100 µM | > 60.7 µM | > 100 µM | > 100 µM | > 100 µM | > 100 µM | > 73.7 µM | > 71.4 µM | > 100 µM | > 100 µM | > 100 µM | – | – | – | – | – | – | – |
| CC1=NN2C(=O)CC(=O)N=C2S1 | > 100 µM | > 100 µM | > 100 µM | > 100 µM | > 100 µM | > 100 µM | > 100 µM | > 100 µM | > 100 µM | > 100 µM | > 100 µM | > 100 µM | – | – | – | – | – | – | – |
| COc1ccc2c(c1)N(C(C)=O)CN1C(=O)CCC21 (centres undefined) | > 100 µM | > 100 µM | > 100 µM | > 100 µM | > 100 µM | > 100 µM | > 100 µM | > 100 µM | > 100 µM | > 100 µM | > 100 µM | > 100 µM | – | – | – | – | – | – | – |
| CN(C)CCOC1(Cc2ccc(Cl)cc2Cl)CCC(C(C)(C)C)CC1 (centres undefined) | 3.77 µM and 3.94 µM | 5.13 µM and 10.7 µM | 3.84 µM and 4.78 µM | 5.85 µM and 4.22 µM | 6.33 µM and 3.25 µM | 3.18 µM and 2.66 µM | 5.54 µM and 3.55 µM | 3.33 µM and 2.98 µM | 4.92 µM and 5.42 µM | 3.9 µM and 9.66 µM | 3.61 µM and 3.92 µM | 3.11 µM and 3.28 µM | 2.19 µM and 4.67 µM | 1.73 | 2.38 | 2.09 | 3.7 | 1.45 µM and 2.08 µM | 1.68 |
| COc1ccc(C2CCC(Cl)(OC)CC2C=O)cc1 (centres undefined) | > 100 µM | > 100 µM | > 100 µM | > 100 µM | > 100 µM | > 100 µM | > 100 µM | > 100 µM | > 100 µM | > 100 µM | > 100 µM | 43.9 µM | – | – | – | – | – | – | – |
| c1ccc2[nH]c3[nH]c4[nH]c5ccccc5[nH]c4[nH]c3[nH]c2c1 | > 100 µM | > 100 µM | > 100 µM | > 100 µM | > 100 µM | > 100 µM | > 100 µM | > 100 µM | > 100 µM | > 100 µM | > 100 µM | > 100 µM | – | – | – | – | – | – | – |
